Data reported in patent publication US20030086872A1, “SUT-2 and SUT-3 genes, proteins and assays for inhibitors of lymphocyte adhesion” (priority 2001, published 2003).
Entries after “also recorded” stand apart in the source; their conditions may differ.

Experiments:
selectins = conditions: cited from earlier work
SUT-1 = target: T1, SUT-1 (Homo sapiens, UniProt Q9UKG4); conditions: cited from earlier work
T1 sequence (Q9UKG4 1-626): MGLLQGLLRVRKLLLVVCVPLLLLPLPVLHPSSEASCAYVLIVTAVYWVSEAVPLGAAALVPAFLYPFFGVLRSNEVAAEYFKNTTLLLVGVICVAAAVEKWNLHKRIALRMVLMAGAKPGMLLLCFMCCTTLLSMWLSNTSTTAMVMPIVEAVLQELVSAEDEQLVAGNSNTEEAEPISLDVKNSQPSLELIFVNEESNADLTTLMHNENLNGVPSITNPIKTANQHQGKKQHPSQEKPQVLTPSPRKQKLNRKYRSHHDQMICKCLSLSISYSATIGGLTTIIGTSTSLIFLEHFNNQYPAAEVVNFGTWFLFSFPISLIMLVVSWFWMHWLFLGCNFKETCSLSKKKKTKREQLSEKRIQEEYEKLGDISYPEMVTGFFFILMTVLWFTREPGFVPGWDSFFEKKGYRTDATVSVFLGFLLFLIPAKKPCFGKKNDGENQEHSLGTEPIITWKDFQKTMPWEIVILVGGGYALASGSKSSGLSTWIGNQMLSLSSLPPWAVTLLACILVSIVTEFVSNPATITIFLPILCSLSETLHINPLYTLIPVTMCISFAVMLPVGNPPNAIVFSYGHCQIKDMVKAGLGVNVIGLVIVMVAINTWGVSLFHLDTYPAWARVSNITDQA

SAT-1 = target: T2, SAT-1 (Rattus norvegicus, UniProt P45380); conditions: rat hepatocytes; cited from earlier work
T2 sequence (P45380 1-703): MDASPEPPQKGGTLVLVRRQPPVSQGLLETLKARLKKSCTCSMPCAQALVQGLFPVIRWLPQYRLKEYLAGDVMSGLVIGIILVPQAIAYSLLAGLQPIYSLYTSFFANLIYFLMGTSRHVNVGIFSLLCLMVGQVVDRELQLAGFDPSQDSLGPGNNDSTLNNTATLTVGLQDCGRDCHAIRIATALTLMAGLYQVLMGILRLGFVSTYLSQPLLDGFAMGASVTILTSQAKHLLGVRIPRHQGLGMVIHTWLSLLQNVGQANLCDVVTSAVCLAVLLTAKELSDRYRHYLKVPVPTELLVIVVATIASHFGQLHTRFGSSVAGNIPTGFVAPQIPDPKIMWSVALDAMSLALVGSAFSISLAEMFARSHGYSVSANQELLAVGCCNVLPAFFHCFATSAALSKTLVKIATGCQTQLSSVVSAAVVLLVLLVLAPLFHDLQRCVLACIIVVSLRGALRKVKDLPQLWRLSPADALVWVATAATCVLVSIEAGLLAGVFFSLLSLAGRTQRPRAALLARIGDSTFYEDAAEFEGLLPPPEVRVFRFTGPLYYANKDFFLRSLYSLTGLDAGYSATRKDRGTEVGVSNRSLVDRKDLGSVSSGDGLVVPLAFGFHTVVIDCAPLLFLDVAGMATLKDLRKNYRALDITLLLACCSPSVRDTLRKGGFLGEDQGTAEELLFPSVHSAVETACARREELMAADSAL

NaSi-1 = target: T3, NaSi-1 (Rattus norvegicus, UniProt Q07782); conditions: rat kidney and small intestine; cited from earlier work
T3 sequence (Q07782 1-595): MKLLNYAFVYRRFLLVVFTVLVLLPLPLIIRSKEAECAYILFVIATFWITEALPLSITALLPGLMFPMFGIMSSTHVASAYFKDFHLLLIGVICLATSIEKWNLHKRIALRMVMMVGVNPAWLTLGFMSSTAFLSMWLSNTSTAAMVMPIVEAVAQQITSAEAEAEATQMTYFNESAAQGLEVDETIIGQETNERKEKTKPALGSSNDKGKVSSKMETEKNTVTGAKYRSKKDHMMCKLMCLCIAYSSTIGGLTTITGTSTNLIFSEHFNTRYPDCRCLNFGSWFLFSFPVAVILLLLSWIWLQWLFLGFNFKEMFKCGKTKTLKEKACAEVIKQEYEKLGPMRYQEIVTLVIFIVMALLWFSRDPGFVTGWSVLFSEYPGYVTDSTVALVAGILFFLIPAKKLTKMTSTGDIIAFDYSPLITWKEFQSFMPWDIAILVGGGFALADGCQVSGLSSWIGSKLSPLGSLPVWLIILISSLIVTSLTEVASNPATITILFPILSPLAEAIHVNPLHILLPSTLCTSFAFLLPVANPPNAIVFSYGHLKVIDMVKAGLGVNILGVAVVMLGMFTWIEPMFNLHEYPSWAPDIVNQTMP

DRA = target: T4, DRA (Homo sapiens, UniProt P40879); conditions: cited from earlier work
T4 sequence (P40879 1-764): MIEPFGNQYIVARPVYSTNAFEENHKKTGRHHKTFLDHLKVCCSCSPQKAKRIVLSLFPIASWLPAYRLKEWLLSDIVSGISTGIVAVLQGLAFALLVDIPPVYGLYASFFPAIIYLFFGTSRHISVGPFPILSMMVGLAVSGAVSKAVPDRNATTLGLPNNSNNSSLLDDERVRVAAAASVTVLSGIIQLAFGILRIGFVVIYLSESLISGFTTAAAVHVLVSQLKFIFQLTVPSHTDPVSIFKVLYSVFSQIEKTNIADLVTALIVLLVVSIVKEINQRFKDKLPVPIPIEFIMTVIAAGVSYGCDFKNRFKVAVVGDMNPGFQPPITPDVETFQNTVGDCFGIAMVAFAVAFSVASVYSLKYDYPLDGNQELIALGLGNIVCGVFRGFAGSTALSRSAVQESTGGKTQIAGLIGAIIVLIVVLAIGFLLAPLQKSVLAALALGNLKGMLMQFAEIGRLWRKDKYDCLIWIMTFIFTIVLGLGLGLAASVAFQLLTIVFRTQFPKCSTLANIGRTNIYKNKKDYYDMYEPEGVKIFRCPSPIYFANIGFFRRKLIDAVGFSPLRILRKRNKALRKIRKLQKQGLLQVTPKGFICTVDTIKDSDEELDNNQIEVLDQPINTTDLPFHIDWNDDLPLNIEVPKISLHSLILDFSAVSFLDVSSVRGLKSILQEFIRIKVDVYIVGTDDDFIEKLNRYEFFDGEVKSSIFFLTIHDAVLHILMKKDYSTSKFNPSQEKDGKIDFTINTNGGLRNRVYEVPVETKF

SUT-3 = target: T5, SUT-3 (Homo sapiens, UniProt Q86WA9); assay: Sulfate uptake by Sf9 insect cells infected with baculovirus expressing SUT-3; type: cell-based; conditions: 1 mM DIDS; uptake of 500 μM Na2SO4; Sf9 cells infected at MOI of 5
T5 construct: The full length SLC26A11 ORF was PCR amplified from IMAGE clone; expressed in transfected cells; host or cells: Sf9 insect cells infected with recombinant baculovirus (pVL1393-SUT-3, polyhedrin promoter)
T5 sequence (Q86WA9 1-606): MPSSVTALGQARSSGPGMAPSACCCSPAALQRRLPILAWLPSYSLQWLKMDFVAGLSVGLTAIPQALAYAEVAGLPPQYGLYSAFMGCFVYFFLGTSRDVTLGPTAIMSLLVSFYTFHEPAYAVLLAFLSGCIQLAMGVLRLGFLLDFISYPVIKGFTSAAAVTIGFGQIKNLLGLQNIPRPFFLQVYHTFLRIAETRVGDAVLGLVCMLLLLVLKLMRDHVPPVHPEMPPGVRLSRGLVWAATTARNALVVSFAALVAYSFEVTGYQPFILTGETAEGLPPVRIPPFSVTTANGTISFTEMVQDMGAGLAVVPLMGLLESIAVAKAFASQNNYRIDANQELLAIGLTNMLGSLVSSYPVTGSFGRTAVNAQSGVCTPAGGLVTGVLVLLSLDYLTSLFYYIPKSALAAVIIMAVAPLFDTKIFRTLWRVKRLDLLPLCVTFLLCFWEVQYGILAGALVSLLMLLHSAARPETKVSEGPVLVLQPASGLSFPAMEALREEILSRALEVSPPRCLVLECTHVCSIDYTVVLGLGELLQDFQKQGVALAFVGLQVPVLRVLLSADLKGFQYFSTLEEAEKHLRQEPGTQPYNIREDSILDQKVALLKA
Protocol: The full length SLC26A11 ORF was PCR amplified from IMAGE clone N^o 4793646, with 10 pmol of primers ATG-SUT-3 (5′-[…]) (SEQ ID NO: 21) and STOP-SUT-3 (5′-[…]-3′)(SEQ ID NO: 22), using 3 units of Pfu (Promega) in its reaction buffer with 400 μM dNTP. PCR cycles were 30×(94° C., 1′, 60° C., 1′, 72° C., 4′). The PCR product was then phosphorylated at its 5′ extremities using 2 units of T4 Polynucleotide Kinase (PROMEGA). 2 μg of pVL1393 vector (BD Biosciences) were digested with 10 units of EcoRI and NotI endonucleases, extremities were blunt-ended with 10 units of T4 DNA polymerase (PROMEGA) and 5′ extremities were dephosphated with 1 unit of Calf Intestine Phosphatase (Boehringer). 100 ng of purified insert and vector were then ligated together using 1 unit of T4 DNA Ligase (Biolabs). All enzymes were used according to supplier's instructions. After restriction analysis, DNA sequencing was performed using the Big Dye Sequencing Kit (Perkin Elmer) according to manufacturer's protocol. […]
For all experiments, 80 cm^2 flasks containing 60% confluent Sf9 cells were infected at a MOI of 5 and incubated for 3 days at 27° C. for protein expression. […] Protein concentration was evaluated using the BIO-RAD protein Assay Kit according to the manufacturer's protocol and cell-associated radioactivity was determined in a Tri-Carb 2100 liquid scintillation counter (Packard). […]

DTD = target: T6, DTD (Homo sapiens, UniProt P50443); conditions: cited from earlier work
T6 sequence (P50443 1-739): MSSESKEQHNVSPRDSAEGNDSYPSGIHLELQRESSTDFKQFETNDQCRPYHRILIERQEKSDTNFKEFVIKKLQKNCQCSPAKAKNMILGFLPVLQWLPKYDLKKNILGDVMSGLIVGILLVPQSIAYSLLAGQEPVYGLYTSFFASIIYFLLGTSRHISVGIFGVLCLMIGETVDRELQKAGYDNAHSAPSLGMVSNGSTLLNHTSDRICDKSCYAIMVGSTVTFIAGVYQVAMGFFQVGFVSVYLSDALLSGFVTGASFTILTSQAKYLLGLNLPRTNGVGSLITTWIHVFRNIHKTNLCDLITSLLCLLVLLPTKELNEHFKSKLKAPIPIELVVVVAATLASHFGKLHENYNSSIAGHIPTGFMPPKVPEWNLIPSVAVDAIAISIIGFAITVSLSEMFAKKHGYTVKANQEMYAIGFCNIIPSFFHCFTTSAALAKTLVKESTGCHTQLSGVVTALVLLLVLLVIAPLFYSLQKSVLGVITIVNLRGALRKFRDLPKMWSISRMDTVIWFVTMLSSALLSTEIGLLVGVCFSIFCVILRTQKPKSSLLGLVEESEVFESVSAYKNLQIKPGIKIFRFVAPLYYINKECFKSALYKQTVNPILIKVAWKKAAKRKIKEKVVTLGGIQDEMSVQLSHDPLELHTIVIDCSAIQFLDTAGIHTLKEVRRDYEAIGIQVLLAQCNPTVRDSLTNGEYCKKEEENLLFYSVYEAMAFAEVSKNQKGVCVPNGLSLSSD

Row | SMILES | endothelial expression of selectins (selectins) | sensitivity of SUT-1 sulfate transport to DIDS (SUT-1) | sensitivity of SAT-1 sulfate transport to DIDS (SAT-1) | sensitivity of NaSi-1 sulfate transport to DIDS (NaSi-1) | sensitivity of DRA to DIDS (DRA) | inhibition of SUT-3-mediated sulfate uptake (SUT-3) | sensitivity of DTD to DIDS (DTD)
1 | COc1cc2c(c(OC)c1OC)-c1ccc(OC)c(=O)cc1[C@@H](NC(C)=O)CC2 [colchicine] | downregulate |  |  |  |  |  | 
2 | O=S(=O)(O)c1cc(N=C=S)ccc1C=Cc1ccc(N=C=S)cc1S(=O)(=O)O [DIDS, 4,4′-diisothiocyanostilbene-2,2′-disulfonic acid] |  | resistant | sensitive | resistant | sensitive | sensitive; also recorded: efficiently inhibited | sensitive
